{"source": "patent US20230398130A1", "about": "“METHODS AND COMPOSITIONS FOR DIFFERENTIATING STEM CELLS” (Massachusetts Institute of Technology, priority 2020, published 2023)", "key": {"ISC-enriched organoids [1]": {"test_system": "ISC-enriched organoids", "experiment": "Primary screen, 384-well 2.5-D organoid differentiation (ENR+CD, 6 days): basal lysozyme secretion (LYZ.NS)", "type": "cell-based, murine", "conditions": "for Dose.FC.LYZ.NS / Z.LYZ.NS: primary screen; for Dose.FC.LYZ.NS: ENR+CD 6 days, FC vs plate median; for Z.LYZ.NS: standard z score of FC", "source_text": "(§1) High-throughput screening."}, "ISC-enriched organoids [2]": {"test_system": "ISC-enriched organoids", "experiment": "Primary screen, 384-well 2.5-D organoid differentiation (ENR+CD, 6 days): carbachol-induced lysozyme secretion (LYZ.S)", "type": "cell-based, murine", "conditions": "for Dose.FC.LYZ.S: primary screen, ENR+CD 6 days, FC vs plate median", "source_text": "as §1"}, "ISC-enriched organoids [3]": {"test_system": "ISC-enriched organoids", "experiment": "Primary screen, 384-well 2.5-D organoid differentiation (ENR+CD, 6 days, Target Selective Inhibitor Library, vs whole-plate median): ATP (CellTiter-Glo 3D, CTG)", "conditions": "for Dose.FC.CTG / Z.CTG: primary screen; for Dose.FC.CTG: ENR+CD 6 days, FC vs plate median; for Z.CTG: standard z score of FC"}, "[4]": {"conditions": "dose 0.08 uM (1st of 4 lines per treatment; dose not printed in this part)"}, "[5]": {"conditions": "dose 0.40 uM (2nd of 4 lines per treatment; dose not printed in this part)"}, "[6]": {"conditions": "dose 2.00 uM (3rd of 4 lines per treatment; dose not printed in this part)"}, "[7]": {"conditions": "dose 10.00 uM (4th of 4 lines per treatment; dose not printed in this part)"}}, "data": [{"compound": "C=C1C(=O)O[C@H]2[C@H]1CC/C(C)=C/CC[C@@]1(C)O[C@@H]21", "note": "[(−)-Parthenolide]", "values": [{"measurement": "SSMD.LYZ.NS_Rep (strictly standardized mean difference)", "setting": "ISC-enriched organoids [1]; [4]", "value": 0.601}, {"measurement": "SSMD.LYZ.NS_Rep (strictly standardized mean difference)", "setting": "ISC-enriched organoids [1]; [5]", "value": 0.480}, {"measurement": "SSMD.LYZ.NS_Rep (strictly standardized mean difference)", "setting": "ISC-enriched organoids [1]; [6]", "value": 0.920}, {"measurement": "SSMD.LYZ.NS_Rep (strictly standardized mean difference)", "setting": "ISC-enriched organoids [1]; [7]", "value": 0.998}, {"measurement": "Dose.FC.LYZ.NS", "setting": "ISC-enriched organoids [1]; dose 0.08 uM", "value": 0.058, "unit": "log 2 fold change"}, {"measurement": "Z.LYZ.NS", "setting": "ISC-enriched organoids [1]; dose 0.08 uM", "value": 0.506}, {"measurement": "Dose.FC.LYZ.NS", "setting": "ISC-enriched organoids [1]; dose 0.40 uM", "value": 0.067, "unit": "log 2 fold change"}, {"measurement": "Z.LYZ.NS", "setting": "ISC-enriched organoids [1]; dose 0.40 uM", "value": 0.583}, {"measurement": "Dose.FC.LYZ.NS", "setting": "ISC-enriched organoids [1]; dose 2.00 uM", "value": 0.089, "unit": "log 2 fold change"}, {"measurement": "Z.LYZ.NS", "setting": "ISC-enriched organoids [1]; dose 2.00 uM", "value": 0.776}, {"measurement": "Dose.FC.LYZ.NS", "setting": "ISC-enriched organoids [1]; dose 10.00 uM", "value": 0.133, "unit": "log 2 fold change"}, {"measurement": "Z.LYZ.NS", "setting": "ISC-enriched organoids [1]; dose 10.00 uM", "value": 1.159}, {"measurement": "SSMD.LYZ.S_Rep (strictly standardized mean difference)", "setting": "ISC-enriched organoids [2]; [4]", "value": 0.679}, {"measurement": "Z.LYZ.S (standard z score)", "setting": "ISC-enriched organoids [2]; [4]", "value": 0.799}, {"measurement": "SSMD.LYZ.S_Rep (strictly standardized mean difference)", "setting": "ISC-enriched organoids [2]; [5]", "value": 0.763}, {"measurement": "Z.LYZ.S (standard z score)", "setting": "ISC-enriched organoids [2]; [5]", "value": 1.067}, {"measurement": "SSMD.LYZ.S_Rep (strictly standardized mean difference)", "setting": "ISC-enriched organoids [2]; [6]", "value": 0.506}, {"measurement": "Z.LYZ.S (standard z score)", "setting": "ISC-enriched organoids [2]; [6]", "value": 0.441}, {"measurement": "SSMD.LYZ.S_Rep (strictly standardized mean difference)", "setting": "ISC-enriched organoids [2]; [7]", "value": 0.345}, {"measurement": "Z.LYZ.S (standard z score)", "setting": "ISC-enriched organoids [2]; [7]", "value": 0.530}, {"measurement": "Dose.FC.LYZ.S", "setting": "ISC-enriched organoids [2]; dose 0.08 uM", "value": 0.124, "unit": "log 2 fold change"}, {"measurement": "Dose.FC.LYZ.S", "setting": "ISC-enriched organoids [2]; dose 0.40 uM", "value": 0.165, "unit": "log 2 fold change"}, {"measurement": "Dose.FC.LYZ.S", "setting": "ISC-enriched organoids [2]; dose 2.00 uM", "value": 0.068, "unit": "log 2 fold change"}, {"measurement": "Dose.FC.LYZ.S", "setting": "ISC-enriched organoids [2]; dose 10.00 uM", "value": 0.082, "unit": "log 2 fold change"}, {"measurement": "SSMD.CTG_Rep (strictly standardized mean difference)", "setting": "ISC-enriched organoids [3]; [4]", "value": 0.498}, {"measurement": "SSMD.CTG_Rep (strictly standardized mean difference)", "setting": "ISC-enriched organoids [3]; [5]", "value": 0.736}, {"measurement": "SSMD.CTG_Rep (strictly standardized mean difference)", "setting": "ISC-enriched organoids [3]; [6]", "value": 0.482}, {"measurement": "SSMD.CTG_Rep (strictly standardized mean difference)", "setting": "ISC-enriched organoids [3]; [7]", "value": 0.257}, {"measurement": "Dose.FC.CTG", "setting": "ISC-enriched organoids [3]; dose 0.08 uM", "value": 0.135, "unit": "log 2 fold change"}, {"measurement": "Z.CTG", "setting": "ISC-enriched organoids [3]; dose 0.08 uM", "value": 0.322}, {"measurement": "Dose.FC.CTG", "setting": "ISC-enriched organoids [3]; dose 0.40 uM", "value": 0.228, "unit": "log 2 fold change"}, {"measurement": "Z.CTG", "setting": "ISC-enriched organoids [3]; dose 0.40 uM", "value": 0.544}, {"measurement": "Dose.FC.CTG", "setting": "ISC-enriched organoids [3]; dose 2.00 uM", "value": 0.157, "unit": "log 2 fold change"}, {"measurement": "Z.CTG", "setting": "ISC-enriched organoids [3]; dose 2.00 uM", "value": 0.376}, {"measurement": "Dose.FC.CTG", "setting": "ISC-enriched organoids [3]; dose 10.00 uM", "value": 0.157, "unit": "log 2 fold change"}, {"measurement": "Z.CTG", "setting": "ISC-enriched organoids [3]; dose 10.00 uM", "value": 0.374}]}]}
